Laboratory results reported in paper PMC11650849, “Brain endothelial permeability, transport, and flow assessed over 10 orders of magnitude using the in situ brain perfusion technique” (Fluids and Barriers of the CNS, 2024).
Read-outs that look alike come from different tables or passages of the source.

Experiments:
[1] = Neutral fraction at pH 7.4 calculated from pKa; type: physicochemical
[2] = rat
[3] = cited from earlier work; for Log Poct: octanol partition coefficient
[4] = cited from earlier work
[5] = rat, in vivo
[6] = for Brain Kin: calculated at brain blood flow […] and rat serum fu; for Extraction (unbound) / Brain vascular extraction (total): calculated at brain blood flow […]; for Extraction (unbound): free drug; for Brain vascular extraction (total): with rat serum fu
[7] = In situ rat brain perfusion (brain uptake Kin, extraction E, BBB PS); conditions: for Log Pc: Pc in cm/s; for Log Po: Po in cm/s; for Log PoS: PoS in mL/s/g; for Pc / Po: S assumed 100 cm^2/g; for PcS: cerebral cortex, S = physiological saline, AB = artificial blood
[8] = rat in vivo measurements; cited from earlier work
[9] = neutral fraction at perfusion fluid pH 7.40, calculated from pKa
[10] = ref Hansch et al. [123], Avdeef [46] or other sources
[11] = intrinsic PS of neutral solute, PoS = PcS/fn, flow 0.1–[…]
[12] = facilitated nutrients, transporter not given

## OCCCCO [1,4-Butanediol]
[1]; pH 7.4
  fn (%): 100%
[2]
  half-life: 1.14 min
[3]
  Log Doct pH=7.4: −0.52
[4]; rat
  fu,.p: 1.00
[5]; pH 7.4
  Log Pc: −3.82
  Log PoS: −1.82
  Pc: 151 ×10⁻⁶ cm/s
  PcS: 0.015 mL/s/g
  PoS: 0.0151 mL/s/g
  Log Po: −3.82
  Po: 0.000151 cm/s

## Nc1c(O)cccc1C(=O)O [3-hydroxy-anthranilic acid]
[1]; [9]
  fn (%): 0.15%
[3]; [10]
  Log Poct: 1.05
  Log Doct pH=7.4: −1.78
[4]; rat in vivo measurements
  fu,.p: 1.00
[5]; pH 7.4
  Log Pc: −5.88
  Log PoS: −1.05
  Pc: 1.31 ×10⁻⁶ cm/s
  PcS: 0.00013 mL/s/g
  PoS: 0.0886 mL/s/g
  Log Po: −3.05
  Po: 0.000886 cm/s
[6]
  Brain Kin: 0.000131 mL/s/g
  Extraction (unbound): 0.54%
  Brain vascular extraction (total): 0.54%

## CC(N)=O [Acetamide]
[1]; [9]
  fn (%): 100%

## Cc1nnc2n1-c1ccc(Cl)cc1C(c1ccccc1)=NC2 [Alprasolam]
[1]; [9]
  fn (%): 100%

## Nc1ccccc1C(=O)O [Anthranilic acid]
[7]
  Log Pc: −4.92
  Log Po: −2.44
  Log PoS: −0.44
  Pc: 11.9 ×10⁻⁶ cm/s
  Po: 3600 ×10⁻⁶ cm/s
[7]; brain vascular intrinsic PoS
  PoS: 0.36 mL/s/g
[7]; flow 0.1–[…]
  PcS: 0.0012 mL/s/g
[7]; [11]
  PoS: 0.36 mL/s/g
[1]; [9]
  fn (%): 0.33%
[3]; [10]
  Log Poct: 1.21
  Log Doct pH=7.4: −1.27
[4]; rat in vivo measurements
  fu,.p: 0.50

## CCCCO [Butanol]
[1]; [9]
  fn (%): 100%
[4]; rat
  fu,.p: 0.60
[5]
  Pc: 1470 ×10⁻⁶ cm/s
  PcS: 0.15 mL/s/g
  PoS: 0.13 mL/s/g
  Po: 0.00127 cm/s
[6]
  Brain Kin: 0.0229 mL/s/g
  Extraction (unbound): 99.8%
  Brain vascular extraction (total): 97.5%
[6]; protein-free physiologic saline pH 7.4
  Peak flow rate for 90% E: 3.8 mL/min/g
[6]; protein-free saline, pH 7.4
  Maximal flow—90% extraction, PcS/2.3: 0.064 mL/s/g

## O=C(O)CCCc1ccc(N(CCCl)CCCl)cc1 [Chlorambucil]
[1]; [9]
  fn (%): 0.16%
[2]
  half-life: 1.23 min
[2]; plasma
  half-life: 1.2 min
[3]; [10]
  Log Poct: 3.41
  Log Doct pH=7.4: 0.61
[4]; rat in vivo measurements
  fu,.p: 0.01
[5]; pH 7.4
  Brain Equilibration t1/2, Measured: 0.75 min
  Log Pc: −3.54
  Log PoS: 1.26
  Pc: 287 ×10⁻⁶ cm/s
  PcS: 0.029 mL/s/g
  PoS: 18.14 mL/s/g
  Log Po: −0.74
  Po: 0.18 cm/s

## CN(C)CCCN1c2ccccc2Sc2ccc(Cl)cc21 [Chlorpromazine]
[1]; [9]
  fn (%): 1.42%
[2]; brain
  half-life: 61.1 min
[4]; rat in vivo measurements
  fu,.p: 0.0354
[5]; pH 7.4
  BBB PcS: 0.31 ± 0.05 mL/s/g
  Extraction (Kin/F): 100%
  Log Pc: −2.51
  Log PoS: 1.30
  Pc: 3090 ×10⁻⁶ cm/s
  PcS: 0.31 mL/s/g
  PoS: 19.8 mL/s/g
  Log Po: −0.70
  Po: 0.20 cm/s
[6]
  Brain Kin: 0.00885 mL/s/g
  Extraction (unbound): 100%
  Brain vascular extraction (total): 36.6%
[6]; protein-free saline, pH 7.4
  Maximal flow—90% extraction, PcS/2.3: 0.13 mL/s/g

## C[C@]12CC[C@H](O)CC1=CC[C@@H]1[C@@H]2CC[C@]2(C)C(=O)CC[C@@H]12 [DHEA]
[1]; [9]
  fn (%): 100%
[3]; [10]
  Log Poct: 3.00
  Log Doct pH=7.4: 3.00
[4]; rat in vivo measurements
  fu,.p: 0.05

## CN(C)CCOC(c1ccccc1)c1ccccc1 [Diphenhydramine]
[1]; [9]
  fn (%): 1.96%

## CCO [Ethanol]
[4]; rat
  fu,.p: 0.95
[6]
  Brain Kin: 0.0195 mL/s/g
  Extraction (unbound): 83.0%
  Brain vascular extraction (total): 81.4%

## CN1C(=O)CN=C(c2ccccc2F)c2cc([N+](=O)[O-])ccc21 [Flunitrazepam]
[1]; [9]
  fn (%): 100%
[3]; [10]
  Log Poct: 2.03
  Log Doct pH=7.4: 2.03
[4]; rat in vivo measurements
  fu,.p: 0.19
[5]; pH 7.4
  Best fit PcS: 0.14 mL/s/g

## CCCCCCO [Hexanol]
[1]; [9]
  fn (%): 100%
[4]; rat in vivo measurements
  fu,.p: 0.30
[6]
  Extraction (unbound): 99.9%
  Brain vascular extraction (total): 89.1%

## CC(C)Cc1ccc(C(C)C(=O)O)cc1 (stereo not shown) [Ibuprofen]
[8]
  Brain Vu,br: 3.38 mL/g
[1]; [9]
  fn (%): 0.11%
[4]; rat in vivo measurements
  fu,.p: 0.016

## CC(C)NC(C)Cc1ccc(I)cc1 (stereo not shown) [Iofetamine, isopropyl-iodoamphetamine]
[7]
  Log Pc: −2.54
  Log Po: −1.02
  Log PoS: 0.98
  Pc: 2910 ×10⁻⁶ cm/s
  Po: 94900 ×10⁻⁶ cm/s
[7]; brain vascular intrinsic PoS
  PoS: 9.49 mL/s/g
[7]; flow 0.1–[…]
  PcS: 0.29 mL/s/g
[7]; [11]
  PoS: 9.49 mL/s/g
[7]; protein-free saline, differing/elevated flow rates, best fit
  BBB PcS: 0.238 mL/s/g
[1]; [9]
  fn (%): 3.07%
[2]
  half-life: 3.16 min
[3]; [10]
  Log Poct: 3.26
  Log Doct pH=7.4: 1.75
[4]; rat in vivo measurements
  fu,.p: 0.25
[6]; pH 7.4
  Maximal flow—90% extraction, PcS/2.3: 0.13 mL/s/g
  Peak flow rate for 90% E: 7.6 mL/min/g

## O=C(O)c1cc(=O)c2ccccc2[nH]1 [Kynurenic acid]
[1]; [9]
  fn (%): 4.6E−7%
[4]; rat in vivo measurements
  fu,.p: 1.00
[5]; pH 7.4
  Log Pc: −5.92
  Log PoS: 0.42
  PcS: 0.00012 mL/s/g
  PoS: 2.60 mL/s/g
  Log Po: −1.58
  Po: 0.026 cm/s

## N[C@@H](CCC(=O)O)C(=O)O [L-Glutamate]
[7]; [12]
  Log PS: −3.82
  PS: 0.000151 mL/s/g

## CC(=O)N[C@@H](CS)C(=O)O [N-acetyl-cysteine]
[7]
  Log Pc: −7.74
  Log Po: −7.74
  Log PoS: −5.74
  Pc: 0.0182 ×10⁻⁶ cm/s
[7]; brain vascular intrinsic PoS
  PoS: 1.82e-06 mL/s/g
[7]; flow 0.1–[…]
  PcS: 1.82e-06 mL/s/g
[3]
  Log Doct pH=7.4: −3.70
[4]; rat in vivo measurements
  fu,.p: 1.00
[6]
  Extraction (unbound): 7.60E-05%
  Brain vascular extraction (total): 7.60E-05%

## COc1ccc2cc([C@H](C)C(=O)O)ccc2c1 [Naproxen]
[1]; [9]
  fn (%): 0.05%

## NC(=O)c1cccnc1 [Nicotinamide]
[1]; [9]
  fn (%): 100%
[3]; [10]
  Log Poct: −0.34
  Log Doct pH=7.4: −0.34

## O=C1Nc2ccc(Cl)cc2C(c2ccccc2)=NC1O (stereo not shown) [Oxazepam]
[1]; [9]
  fn (%): 100%
[4]; rat
  fu,.p: 0.17

## CCC1(c2ccccc2)C(=O)NC(=O)NC1=O [Phenobarbital]
[1]; [9]
  fn (%): 47.7%
[2]
  half-life: 7.39 min
[3]; [10]
  Log Poct: 1.53
  Log Doct pH=7.4: 1.51
[4]; rat in vivo measurements
  fu,.p: 0.25
[5]; pH 7.4
  Log Pc: −4.19
  Log PoS: −1.86
  Pc: 65.1 ×10⁻⁶ cm/s
  PcS: 0.0065 mL/s/g
  PoS: 0.0136 mL/s/g
  Log Po: −3.86
  Po: 0.000136 cm/s

## CCCO [Propanol]
[1]; [9]
  fn (%): 100%
[4]; rat
  fu,.p: 0.74

## O=C(O)c1cccnc1C(=O)O [Quinolinic acid]
[3]; [10]
  Log Poct: −1.44
  Log Doct pH=7.4: −4.08
[4]; rat in vivo measurements
  fu,.p: 1.00
[5]; pH 7.4
  Log Pc: −7.77
  Log PoS: −3.13
  Pc: 0.017 ×10⁻⁶ cm/s
  PcS: 1.7e-06 mL/s/g
  PoS: 0.000743 mL/s/g
  Log Po: −5.13
  Po: 7.43e-06 cm/s
[6]
  Brain Kin: 0.00019 mL/s/g
  Extraction (unbound): 0.01%
  Brain vascular extraction (total): 0.0071%

## CN1C(=O)C(O)N=C(c2ccccc2)c2cc(Cl)ccc21 (stereo not shown) [Temazepam]
[1]; [9]
  fn (%): 100%
[4]; rat
  fu,.p: 0.18

## Cn1c(=O)c2[nH]cnc2n(C)c1=O [Theophylline]
[1]; [9]
  fn (%): 100%
[2]; brain
  half-life: 4.6 min
[3]; [10]
  Log Poct: 0.00
  Log Doct pH=7.4: 0.00

## CCCCNC(=O)NS(=O)(=O)c1ccc(C)cc1 [Tolbutamide]
[1]; [9]
  fn (%): 0.61%
[2]; brain
  half-life: 3.27 min

## Cc1nnc2n1-c1ccc(Cl)cc1C(c1ccccc1Cl)=NC2 [Triasolam]
[1]; [9]
  fn (%): 100%

## NC(N)=O [Urea]
[1]; [9]
  fn (%): 100%
[3]; [10]
  Log Poct: −1.66
  Log Doct pH=7.4: −1.66
[4]; rat in vivo measurements
  fu,.p: 1.00

## O [Water]
[3]; [10]
  Log Poct: −0.59
  Log Doct pH=7.4: −0.59
[4]; rat in vivo measurements
  fu,.p: 1.00
[5]
  BBB PcS: 0.029 mL/s/g
  Brain Equilibration t1/2, Measured: 1 min
  Kin Underestimate (linear regression vs two compartment model): 54%
  Log Pc: −3.54
  Log PoS: −1.54
  Pc: 287 ×10⁻⁶ cm/s
  PcS: 0.029 mL/s/g
  PoS: 0.0287 mL/s/g
  Log Po: −3.54
  Po: 0.000287 cm/s
[6]; plasma
  Brain Equilibration t1/2, Calculated: 0.81 min

## CC(C)(C)OC(=O)CCCc1ccc(N(CCCl)CCCl)cc1 [t-butyl chlorambucil]
[1]; [9]
  fn (%): 100%
[3]; [10]
  Log Poct: 5.24
  Log Doct pH=7.4: 5.24
[3]; ref Hansch et al. [123], Avdeef [46] or other sources, listed as t-butyl-chlorambucil
  Log Poct: 5.2
[4]; rat in vivo measurements
  fu,.p: 2.0E−03
[5]
  Brain Extraction (%): 24%
  Log Pc: −0.49
  Log PoS: 1.51
  Pc: 321000 ×10⁻⁶ cm/s
  PcS: 32.1 mL/s/g
  PoS: 32.1 mL/s/g
  Log Po: −0.49
  Po: 0.32 cm/s
[6]; pH 7.4
  Maximal flow—90% extraction, PcS/2.3: 14.0 mL/s/g

## Erythrosine B
[1]; [9]
  fn (%): 7.8E−06%
[3]
  Log Doct pH=7.4: −0.15
[4]; rat
  fu,.p: 0.01
[5]
  Log Pc: −5.19
  Log PoS: 3.92
  Pc: 6.53 ×10⁻⁶ cm/s
  PcS: 0.00065 mL/s/g
  Log Po: 1.92
  Po: 83.48 cm/s
[6]
  Brain Kin: 6.53e-06 mL/s/g
  Extraction (unbound): 2.7%
  Brain vascular extraction (total): 0.027%
